Values quoted from earlier work, collected in patent US20110165235A1, “DIRECTLY PRESSED ALISKIREN TABLETS” (ratiopharm GmbH, priority 2008, published 2011).

Conditions: BCS classification

- solubility: high
SMILES: COCCCOc1cc(C[C@@H](C[C@H](N)[C@@H](O)C[C@H](C(=O)NCC(C)(C)C(N)=O)C(C)C)C(C)C)ccc1OC [Aliskiren, (2S,4S,5S,7S)-5-amino-N-(2-carbamoyl-2-methyl-propyl)-4-hydroxy-7-{[4-methoxy-3-(3-methoxypropoxy)phenyl]methyl}-8-methyl-2-propan-2-yl-nonanamide]
